Data from patent US6894068B2, “Substituted benzimidazoles as non-nucleoside inhibitors of reverse transcriptase” (The United States of America as represented by the …, priority 1997, dated 2005).
Where “and” joins values, the source holds several entries; their conditions need not be identical. Equal values may be shown once. Read-outs that look alike come from different tables or passages of the source.

How the values were obtained:
HIV-1 WT virus (NL4-3) = test: microbe, parasite or virus in culture; format: cell-based; conditions: for cytotoxicity and anti-viral effect, summary graph, result in words: FIGS. 10-12; for EC50 / EC50 (μM): Table 11, CEMSS/NL4-3, NRVC = no reduction in viral CPE; for EC50: read-out: EC50; for inhibitory potency against HIV-1 (CIC50), result in words: CEMSS cell culture, WT virus (NL4-3), relative to parent compounds 1 and 2
Protocol: Evaluation of these compounds for the inhibition of HIV-1 was determined as the fifty percent cell culture inhibitory concentration (CIC50) in CEMSS cell culture with WT virus (NL4-3).
In this Example, the antiviral and cellular toxicity of NNRTIs was investigated, using the cytopathic cell killing assay described by Yang (Yang et al., “Characteristics of a Group of Non-nucleoside Reverse Transcriptase Inhibitors with Structural Diversity and Potent Anti-Human Immunodeficiency Virus Activity,” Leukemia 9:S75-S85 [1995]). Briefly, in this method cells (e.g., the CEM-SS cell line, available from the NIAID AIDS Research and Reference Program [ARRRP]) were seeded at a density of 5×10^3 cells/well, into the wells of a 96-well microtiter plate. The cells were then infected with HIV virus (either mutant or WT), at a multiplicity of infection (MOI) previously determined to provide complete cell killing by 6 days of culture post-infection (e.g., MOI of 0.01-0.05). Each of the HIV isolates was pre-titered to induce equivalent levels of infection based on cell killing or virus production, prior to their use in these assays. A range of test compound concentrations was added to the wells in triplicate (e.g., serial half-log dilutions) to evaluate inhibition of HIV infection. Controls for each assay included drug controls (drug colorimetric control wells), drug cytotoxicity control wells (cells with drug), virus control wells (cells with virus), and cell viability controls (cells only). Positive control drugs (e.g. AZT and ddC) were also run in parallel.
After six days of incubation at 37° C., cell viability was determined spectrophotometrically at 450 nm for each well, using the metabolic reduction of XTT to a soluble colored formazan. (See, Gartner and Popovic, “Virus Isolation and Production, in Aldovini and Walker (eds.), Techniques in HIV Research, Stockton Press, NY, pp. […] [1991]; and Nara and Fischinger, “Quantitative Infectivity Assay for HIV-1 and HIV-2, ” Nature 332:469-470 [1988]).
The in vitro therapeutic index (TI50) was defined as the fold-difference between the EC50 and IC50. The results for the various compounds are included in FIGS. 8 and 19.

HIV-1 WT RT = HIV-1 WT RT (Human immunodeficiency virus type 1 group M subtype B, UniProt P03366); test: biochemical; format: biochemical; conditions: WT RT
[1] = Human immunodeficiency virus 1, NL43, CEM-SS

melting point | SMILES | also measured
175 to 176 °C | Cc1cccc2c1nc(-c1ccc3ccccc3c1)n2Cc1c(F)cccc1F | 
136 °C and 136 to 137 °C | Fc1cccc(F)c1Cn1c(-c2c(F)cccc2F)nc2cc(Cl)ccc21 | 
163 °C | Fc1cccc(F)c1Cn1c(-c2ccccc2)nc2ccccc21 | 
152 to 153 °C | Fc1cccc(F)c1Cn1c(-c2c(F)cccc2F)nc2ccc(Cl)cc21 | 
186 to 188 °C | Cc1cccc2c1nc(-c1cccnc1)n2Cc1c(F)cccc1F | 
147 to 149 °C | Cc1ccc2c(c1)nc(-c1c(F)cccc1F)n2Cc1c(F)cccc1F | 
171 to 172 °C | Cc1cccc2c1nc(-c1ccncc1)n2Cc1c(F)cccc1F | 
172 to 173 °C | Cc1ccc2nc(-c3c(F)cccc3F)n(Cc3c(F)cccc3F)c2c1 | 
155 to 156 °C | Cc1cccc2c1nc(-c1c(F)cccc1F)n2Cc1c(F)c(F)c(F)c(F)c1F | 
177 °C and 177 to 178 °C | Cc1cccc2nc(-c3c(F)cccc3F)n(Cc3c(F)cccc3F)c12 | 
131 to 132 °C | Cc1cccc2c1nc(-c1c(F)cccc1F)n2Cc1cccnc1 | 
176 to 177 °C | Cc1ccc2c(nc(-c3c(F)cccc3F)n2Cc2c(F)cccc2F)c1C | 
104 to 106 °C | O=S(=O)(c1ccccc1)n1c(-c2c(F)cccc2F)nc2ccccc21 | 
153 to 154 °C | Cc1cc(C)c2nc(-c3c(F)cccc3F)n(Cc3c(F)cccc3F)c2c1 | 
168 to 169 °C | O=[N+]([O-])c1ccc2c(c1)nc(-c1c(F)cccc1F)n2Cc1c(F)cccc1F | 
136 to 139 °C | COc1cccc2c1nc(C1CC1)n2Cc1c(F)cccc1F | 
184 to 186 °C | COC(=O)c1cccc2c1nc(-c1c(F)cccc1F)n2Cc1c(F)cccc1F | 
78 to 79 °C | CC(C)=CCn1c(-c2c(F)cccc2F)nc2c(C)cccc21 [(X = CH3) R = prenyl, 1-(3,3-dimethylallyl)-2-(2,6-difluorophenyl)-4-methylbenzimidazole] | 
109 °C | Fc1cccc(F)c1COCc1nc2ccccc2n1Cc1c(F)cccc1F [Compound 32, 1-(2,6-difluorobenzyl)-2-(2,6-difluorobenzyloxymethyl)benzimidazole] | 
99 °C | Cc1nc2ccccc2n1Cc1c(F)cccc1F [Compound 35, 1-(2,6-difluorobenzyl)-2-methylbenzimidazole] | 
121 to 123 °C | Cc1cccc2c1nc(-c1cccc3ccccc13)n2Cc1c(F)cccc1F [Compound 37, 1-(2,6-difluorobenzyl)-2-(1-naphthyl)-4-methylbenzimidazole] | 

Further lines, the molecule ahead of its results:

SMILES | melting point | also measured
Cc1cccc2c1nc(C(C)C)n2Cc1c(F)cccc1F [Compound 34, 1-(2,6-difluorobenzyl)-2-isopropyl-4-methylbenzimidazole] | 151 to 153 °C | cytotoxicity and anti-viral effect, summary graph, result in words (HIV-1 WT virus (NL4-3)): effective therapeutic dose
Fc1cccc(F)c1Cn1c(-c2c(F)cccc2F)nc2cc(Br)ccc21 [Compound 38, 1-(2,6-Difluorobenzyl)-2-(2,6-difluorophenyl)-5-bromobenzimidazole] | 155 to 156 °C | cytotoxicity and anti-viral effect, summary graph, result in words (HIV-1 WT virus (NL4-3)): inactive
O=C(c1c(F)cccc1F)n1c(-c2c(F)cccc2F)nc2ccccc21 [Compound 47, 1-(2,6-difluorobenzoyl)-2-(2,6-difluorophenyl)benzimidazole] |  | inhibition at 10 µM (HIV-1 WT RT; Table 2, 10 μM drug, rC-dG template primer, read-out: % inhibn (10 μM)): 8%; RT inhibition, result in words (HIV-1 WT RT): did not show appreciable RT inhibition activity
CC(=O)OCc1cccc2c1nc(-c1c(F)cccc1F)n2Cc1c(F)cccc1F [Compound 51, 1-(2,6-difluorobenzyl)-2-(2,6-difluorophenyl)-4-acetoxymethylbenzimidazole] |  | EC50 (HIV-1 WT virus (NL4-3); [1]): 59 nM
Oc1cccc2c1nc(-c1c(F)cccc1F)n2Cc1c(F)cccc1F [Compound 52, 1-(2,6-Difluorobenzyl)-2-(2,6-difluorophenyl)-4-hydroxyl-benzimidazole] | 257 to 259 °C | EC50 (HIV-1 WT virus (NL4-3); [1]): 650 nM
N#Cc1cccc2c1nc(-c1c(F)cccc1F)n2Cc1c(F)cccc1F [Compound 60, 1-(2,6-difluorobenzyl)-2-(2,6-difluorophenyl)-4-cyanobenzimidazole] |  | EC50 (HIV-1 WT virus (NL4-3); [1]): 430 nM
N=C(NO)c1cccc2c1nc(-c1c(F)cccc1F)n2Cc1c(F)cccc1F [Compound 61, N-hydroxy 1-(2,6-difluorobenzyl)-2-(2,6-difluorophenyl)benzimidazole-4-carboxamidine] | 214 to 216 °C and 213 to 216 °C | inhibitory potency against HIV-1 (CIC50), result in words (HIV-1 WT virus (NL4-3)): clearly detrimental to potency; EC50 (HIV-1 WT virus (NL4-3); [1]): 190 nM
NC(=O)c1cccc2c1nc(-c1c(F)cccc1F)n2Cc1c(F)cccc1F [Compound 62, 1-(2,6-difluorobenzyl)-2-(2,6-difluorophenyl)benzimidazole-4-carboxylic acid amide] | 260 to 261 °C | inhibitory potency against HIV-1 (CIC50), result in words (HIV-1 WT virus (NL4-3)): clearly detrimental to potency; EC50 (HIV-1 WT virus (NL4-3); [1]): 4900 nM
O=C(O)c1cccc2c1nc(-c1c(F)cccc1F)n2Cc1c(F)cccc1F [Compound 64, 1-(2,6-Difluorobenzyl)-2-(2,6-difluorophenyl)benzimidazole-4-carboxylate] | 179 to 180 °C and 178 to 180 °C | inhibitory potency against HIV-1 (CIC50), result in words (HIV-1 WT virus (NL4-3)): clearly detrimental to potency; EC50 (μM) (HIV-1 WT virus (NL4-3)): NRVC
CC(C)(O)c1cccc2c1nc(-c1c(F)cccc1F)n2Cc1c(F)cccc1F [Compound 65, 1-(2,6-Difluorobenzyl)-2-(2,6-difluorophenyl)-4-benzimidazoyl-2-propanol] |  | EC50 (HIV-1 WT virus (NL4-3)): 6340 nM
C=C(C)c1cccc2c1nc(-c1c(F)cccc1F)n2Cc1c(F)cccc1F [Compound 66, 1-(2,6-Difluorobenzyl)-2-(2,6-difluorophenyl)-4-isopropenylbenzimidazole] | 156 to 158 °C | EC50 (HIV-1 WT virus (NL4-3); [1]): 1440 nM
OCc1cccc2c1nc(-c1c(F)cccc1F)n2Cc1c(F)cccc1F [Compound 67, 1-(2,6-Difluorobenzyl)-2-(2,6-difluorophenyl)-4-hydroxymethylbenzimidazole] |  | EC50 (HIV-1 WT virus (NL4-3); [1]): 23 nM
O=Cc1cccc2c1nc(-c1c(F)cccc1F)n2Cc1c(F)cccc1F [Compound 68, 1-(2,6-Difluorobenzyl)-2-(2,6-difluorophenyl)-benzimidazole-4-carbaldehyde] | 151 to 153 °C | EC50 (HIV-1 WT virus (NL4-3); [1]): 120 nM
Fc1cccc(F)c1Cn1c(-c2c(F)cccc2F)nc2c(CCl)cccc21 [Compound 69, 1-(2,6-difluorobenzyl)-2-(2,6-difluorophenyl)-4-chloromethylbenzimidazole] | 143 to 144 °C | EC50 (HIV-1 WT virus (NL4-3); [1]): 180 nM
CC(=O)NCc1cccc2c1nc(-c1c(F)cccc1F)n2Cc1c(F)cccc1F [Compound 72] |  | EC50 (μM) (HIV-1 WT virus (NL4-3)): NRVC
CC(=O)N(C)Cc1cccc2c1nc(-c1c(F)cccc1F)n2Cc1c(F)cccc1F [Compound 73, 1-(2,6-Difluorobenzyl)-2-(2,6-difluorophenyl)-4-(N-acetyl-N-methyl)-aminomethylbenzimidazole] |  | EC50 (HIV-1 WT virus (NL4-3)): 580 nM
N#Cc1cccc2c1nc(-c1c(F)cccc1F)n2Cc1c(F)cccc1F [Compound 4007] |  | % inhibn (10 μM) (HIV-1 WT RT; Table 1, 10 μM drug, rC-dG template primer): 26%
